{"source": "patent US20200071667A1", "about": "“COMPOSITION COMPRISING GLYCYRRHIZIN FOR INDUCING DIFFERENTIATION INTO MYELOID-DERIVED SUPPRESSOR CELL FROM MYELOID CELL” (Konkuk University Glocal Industry-Academic Collabo, priority 2018, published 2020)", "key": {"[1]": {"tested_on": "Toll-like receptor 4 (TLR4)", "assay": "Western blotting of TLR4 in heart or lung tissues", "type": "in vivo, C57BL/6 mice", "procedure": "Specifically, 0.1 ml of phosphate buffered saline (PBS; Gibco, Grand Island, N.Y., USA) was injected intraperitoneally (i.p.) into mice of the control, and 12 hours after the injection, 0.1 ml of PBS was intraperitoneally injected again into each mouse. 1 μg of LPS (Escherichia coli serotype 0111:B4, Sigma-Aldrich, St. Louis, Mo., USA) dissolved in 0.1 ml of PBS was injected intraperitoneally (i.p.) into mice of the LPS group to induce sepsis, and 12 hours after sepsis induction, 0.1 ml of PBS was intraperitoneally injected into each mouse. 1 μg of LPS and 100 mg/kg of ammonium glycyrrhizinate (GR; Abcam Inc., Cambridge, UK) dissolved in 0.1 ml of PBS were injected intraperitoneally (i.p.) into mice of the LPS+GR group, and 12 hours after the injection, 100 mg/kg of ammonium glycyrrhizinate dissolved in 0.1 ml of PBS was intraperitoneally injected into each mouse.\nIt was determined whether TLR4 expression levels were inhibited when mice with sepsis induced by LPS were treated with glycyrrhizin. The expression level of Toll-like receptor 4 (TLR4) was confirmed using immunohistochemistry and western blot analysis.\nWestern blotting was performed to confirm the intensity of TLR4 staining. […] Band intensity was quantified using Luminescent Image Analyzer LAS-3000 (FUJIFILM Medical Systems, Hanover Park, Ill., USA). The density of each band was analyzed using NIH Image J software."}, "myeloid cells": {"tested_on": "myeloid cells", "assay": "Differentiation of LPS-treated mouse myeloid cells treated with glycyrrhizin (in vitro), flow cytometric analysis", "type": "cell-based, C57BL/6 mice", "conditions": "LPS 1 ng/ml, GR 100 μg/ml, incubation 3 days", "procedure": "To verify the in vivo experimental results of Example <2-1>, flow cytometric analysis was used to confirm whether differentiation into CD11b+Gr1 myeloid cells or MDSCs from myeloid cells was induced when myeloid cells of mice were treated with glycyrrhizin (GR).\nSpecifically, myeloid cells were obtained by washing the femoral region of each of 8-week-old male C57BL/6 male mice without specific pathogens with a Roswell Park Memorial Institute (RPMI) 1640 medium in a sterile state using a syringe with a 27-gauge needle. Red blood cells (RBCs) of the collected bone marrow were lysed with an erythrolysis solution, and then the remaining cells were treated with 10% fetal bovine serum, 40 ng/ml of IL-6, and 40 ng/ml of granulocyte-macrophage colony stimulating factor at 37° C. Thereafter, only 1 ng/ml of LPS was treated (LPS group) or 100 μg/ml of GR was additionally treated (LPS+GR group) after LPS treatment. The control was treated with 0.1 ml of PBS. After incubation for 3 days, the same flow cytometric analysis as in Example <2-1> was performed to measure the absolute number of myeloid cells of each group, and then all the obtained data was analyzed using FlowJo software (Tree Star Inc., Ashland, Oreg., USA) to determine the ratio of MDSCs to CD11b+Gr1 myeloid cells."}, "IL-6": {"tested_on": "IL-6", "assay": "ELISA of IL-6 in BALF and blood of mice with LPS-induced sepsis", "type": "in vivo, C57BL/6 mice", "conditions": "12 hours after final injection", "procedure": "Specifically, 0.1 ml of phosphate buffered saline (PBS; Gibco, Grand Island, N.Y., USA) was injected intraperitoneally (i.p.) into mice of the control, and 12 hours after the injection, 0.1 ml of PBS was intraperitoneally injected again into each mouse. 1 μg of LPS (Escherichia coli serotype 0111:B4, Sigma-Aldrich, St. Louis, Mo., USA) dissolved in 0.1 ml of PBS was injected intraperitoneally (i.p.) into mice of the LPS group to induce sepsis, and 12 hours after sepsis induction, 0.1 ml of PBS was intraperitoneally injected into each mouse. […]\nSpecifically, for the analysis of bronchoalveolar lavage fluid and blood, 12 hours after the final injection into mice of each experimental group of Example 1, 1 μg/g of Zoletil®50 (a combined preparation of tiletamine and zolazepam, Virbac Laboratories, Carros, France) as an anesthetic and 0.1 U/g of heparin sodium (Green Cross Co., Yongin, Korea) were intraperitoneally injected into each mouse to minimize the effect of aches or pains on immunity. […] The levels of tumor necrosis factor (TNF)-α, IL-6, and IL-1β in BALF and blood were measured using a mouse enzyme-linked ELISA kit (R&D Systems Inc., Minneapolis, Minn., USA) according to the manufacturer's instructions. Samples collected from each group were analyzed in triplicate."}, "[2]": {"conditions": "parenthesised line under cell number"}}, "data": [{"substance": "lipopolysaccharide [LPS]", "values": [{"measurement": "TLR4 intensity by western blotting", "setting": "[1]; heart", "result": "403.9±29.3"}, {"measurement": "TLR4 intensity by western blotting", "setting": "[1]; lungs", "result": "350.7±21.3"}, {"measurement": "CD11b + Gr1 myeloid cells (number of cells)", "setting": "myeloid cells", "result": "16,500 ± 400"}, {"measurement": "MDSCs (number of cells)", "setting": "myeloid cells", "result": "5,200 ± 300"}, {"measurement": "MDSCs/CD11b + Gr1 myeloid cells × 100 (%)", "setting": "myeloid cells", "result": "32.45 ± 2.69", "unit": "%"}, {"measurement": "Total cell count", "setting": "myeloid cells", "result": "47,300 ± 1,200"}, {"measurement": "CD11b + Gr1 myeloid cells (value in parentheses)", "setting": "myeloid cells; [2]", "result": "(34.61 ± 4.51)"}, {"measurement": "MDSCs (value in parentheses)", "setting": "myeloid cells; [2]", "result": "(11.23 ± 1.25)"}, {"measurement": "IL-6", "setting": "IL-6; BALF", "result": "650.26 ± 11.02", "unit": "pg/µL"}, {"measurement": "IL-6", "setting": "IL-6; Blood", "result": "172.63 ± 14.22", "unit": "pg/µL"}]}]}
